Laboratory results taken from paper PMC11213822, “Copper resistance in the cold: Genome analysis and characterisation of a PIB‐1 ATPase in Bizionia argentinensis” (Environmental Microbiology Reports, 2024).

B1: BaCopA1 (Bizionia argentinensis JUB59) (protein)
chain: MTCNGCRSHVEEILSKVKYVLKASVDLEKEEATIEMESHIPIEKFQNALKNDGGRYSIHKNPLPGSPKGRSNKTDKSKSEKSPLRGLGDTFYCPMHCEGDKIYDKPGDCPVCGMDLVEEQNLSTSNSEQWTCPMHPEVVKDEAGPCPICGMDLVPMQADSSAEEKTYKKLLKKFWIASIFTLPIFIMAMSEMLTNNPLYDIMDQKNWNWVQFALSIPVVFYATWMFFERAYKSIKTWNLNMFTLIGIGAGVAWLFSVFGMFFPDVFPSQFRSESGAVHVYFEAATVILTLVLLGQLLEARAHSKTNSAVKELLKLAPNKATKVVNGEDVEVSIDNIELNDILKVKPGDKIPVDGVITEGVTTIDESMITGEPVPVDKTEGDKVSSGTINGNQSFLMKAEKVGSHTLLSQIIHMVNTASRSRAPIQNLADKVSGYFVPVVVLISLITFAVWAIWGPEPAYVYALVNAIAVLIIACPCALGLATPMSVMVGVGKGAQNGVLIKNAEALEKLDKVDTLIVDKTGTITEGKPTVEKMGAFSDVFSESDVLQYIVSLNSNSEHPLAEATVKYGKEQKAEIIKSDAFSAVTGKGVEATINNKKVALGNPKMMEYAQAEITSQMQDEAKTYQKQGKTVSYLAIDKIVIGYVVIGDKIKATSAKAIKELQDKGIAVIMLTGDNHDTAQAVASELNLADFKASMLPEDKLKEVEKLQKEGKVVAMAGDGINDAPALAKSDVGIAMGTGTDVAIESAMITLVKGDLNGIVKAKHLSHAVMKNIKQNLFFALIYNTLGVPIAAGVLFPIFGILLSPMIAALAMSFSSVSVIANALRLRTIKI

Assays:
[1] = biological target: T1, BaCopA1 (Bizionia argentinensis, UniProt G2EDW3); assay: time course of Pi release, malachite green; format: biochemical; settings: 2.0 mM ATP, 2.0 mM MgCl2, 0.1 mM CuSO4, 20 mM cysteine, pH 8.0, 5 °C; 10 μM vanadate
T1 construct: gene BZARG_1779; C-terminal TEV site-GFP-His tag not removed (tag printed as His6 and his8); expressed in S. cerevisiae FGY217, detergent-solubilised, Ni-NTA purified in C12E10

[2] = substrate: Nc1ncnc2c1ncn2[C@@H]1O[C@H](COP(=O)(O)OP(=O)(O)OP(=O)(O)O)[C@@H](O)[C@H]1O; assay: purified protein; settings: free Mg2+ 0.25 mM, 0.1 mM CuSO4, 20 mM cysteine, asolectin/C12E10, pH 8.0, 5 °C

Molecule	inhibition at 10 μM [1]	Km [2]
[O]=[V]([OH])([OH])[OH] [vanadate]	an inhibitory effect of ATPase activity occurs with the addition of vanadate	–
B1	–	0.15 ± 0.03 mM
